Data from publication PMC5787524, “Discovery of a FLT3 inhibitor LDD1937 as an anti-leukemic agent for acute myeloid leukemia” (Oncotarget, 2017).

Test system: MV-4-11 cells
Test: TUNEL assay
Format: cell-based, human
Details: 100 nM, 24 h
Experimental: For the terminal deoxynucleotidyl transferase dUTP nick end labeling (TUNEL) assay, the APO-DIRECT Kit (BD Biosciences, San Diego, CA, USA) was used. Briefly, 2 × 10^6 cells were harvested and fixed in 2% formaldehyde/PBS solution for 30 min. on ice. The fixed cells were washed twice with PBS and stored in 1 ml of 70 % ethanol at –20°C until use. After washing with wash buffer, the cells were incubated in DNA Labeling Solution (reaction buffer, TdT Enzyme, and FITC dUTP) for 60 min. at 37°C. After labelling, the cells were washed twice with rinse buffer. The cells were incubated with 200 µg/ml RNase A and 5 µg/ml PI for an additional 30 min at room temperature. […] was measured with an Accuri C6 flow cytometer.

Question: How did the “TUNEL positive cell population” value turn out when `COC(=O)c1ccc2c(c1)/C(=C1/Nc3ccccc3/C1=N\OCCN1CCNCC1)C(=O)N2.Cl.Cl` [LDD1937, methyl (2Z,3E)-2′-oxo-3-((2-(piperazin-1-yl)ethoxy)imino)-[2,3′-biindolinylidene]-5′-carboxylate dihydrochloride] was run?
Answer: Its value is 32.1%.
